Experimental data from PMC11284787, “Ligand-Directed Labeling of the Adenosine A1 Receptor in Living Cells” (Journal of Medicinal Chemistry, 2024).
Read-outs that look alike come from different tables or passages of the source.

Columns and labels:
NL-hA1AR [1] = biological target: T1, NL-hA1AR (Homo sapiens, UniProt P30542); test: NanoBRET dissociation kinetics, NL-hA1AR HEK293T cells; type: binding; details: cells prelabeled with 250 nM for 5 h, BRET monitored 60 min
T1 construct: expressed in transfected cells
T1 sequence (P30542 1-326): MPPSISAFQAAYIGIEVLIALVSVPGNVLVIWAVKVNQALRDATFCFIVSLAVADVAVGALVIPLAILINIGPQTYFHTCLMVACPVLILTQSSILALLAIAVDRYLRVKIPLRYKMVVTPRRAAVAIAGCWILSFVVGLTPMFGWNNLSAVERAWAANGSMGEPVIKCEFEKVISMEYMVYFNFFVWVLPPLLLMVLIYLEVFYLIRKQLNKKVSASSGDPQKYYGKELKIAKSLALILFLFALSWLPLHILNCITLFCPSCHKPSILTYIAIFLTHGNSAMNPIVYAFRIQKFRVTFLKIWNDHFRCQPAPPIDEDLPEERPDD
Method: Figure 3 Molecular pharmacology and biochemical characterization of 11 and 12. NanoBRET ligand-binding data were measured in HEK293 cells stably expressing the human NL-A1AR (A–C) or rat NL-A1AR (D–F). […] Data were normalized to maximal BRET signals in the absence of unlabeled competing ligands (total binding, TB). (C, F) NanoBRET dissociation kinetics experiments with 11 (SulfoCy5) performed in human and rat NL-A1AR HEK293T cells, respectively. Cells were treated with 250 nM 11 (SulfoCy5, lilac open circles) for 5 h and CA200645 (black open triangles) for 2 h. […] TS-SNAP-A1AR was purified and separated on an SDS-PAGEgel gel, and direct Cy5 fluorescence was visualized using in-gel fluorescence. […]
The small reduction in the BRET signal observed toward the end of the reads could be mostly likely ascribed to substrate (furimazine) consumption. […] To confirm covalent labeling of A1AR by 11 and 12, HEK293G cells stably expressing a Twin-Strep-SNAP-A1AR(TS-SNAP-A1R) construct were treated with 11 or 12 prior to purification, separation by sodium dodecyl sulfate-polyacrylamide gel electrophoresis (SDS-PAGE) and visualization of labeled samples by in-gel fluorescence (Figure 3G). […]
(§1) 37 °C for kinetic binding experiments. Emissions were read at 420 nm (80 nm bandpass; […]

NL-hA1AR [2] = biological target: T1, NL-hA1AR; test: NanoBRET saturation ligand-binding assay, NL-hA1AR
Method: The ligand-binding properties of the newly synthesized probes were assessed in a series of pharmacological assays. Initially, a NanoBRET[47],[48] saturation binding experiment was used to evaluate the binding affinity of ligand-directed probes functionally labeled with the SulfoCy5 fluorophore (11) to the NanoLuc(NL)-tagged[49] hA1AR expressed in HEK293T cells.
NanoBRET binding assay. All NanoBRET experiments were performed in white flat […]
as §1
the SulfoCy5-labelled probe. […]
nm emission by the 420 nm emission. The term “raw BRET ratio” refers to the unprocessed data as no background ratio has been subtracted. In all NanoBRET binding […]
competitive antagonist selective for the adenosine receptor under investigation […]
MRS1220 for the A3AR). HEK293T cells stably/transiently expressing Nluc-AR were […]
were incubated for 1 h at 37 °C. […]
NanoBRET saturation binding assay. Total and nonspecific saturation binding curves were fit simultaneously using the following equation: […]

NL-hA3AR = biological target: T2, NL-hA3AR (Homo sapiens, UniProt P0DMS8); test: cell-based; type: binding; details: CA200645 (25 nM) tracer, HEK293T cells, mean ± SEM; read-out: affinity values pKi, NL-hA3AR (converted)
T2 construct: expressed in transfected cells
T2 sequence (P0DMS8 1-318): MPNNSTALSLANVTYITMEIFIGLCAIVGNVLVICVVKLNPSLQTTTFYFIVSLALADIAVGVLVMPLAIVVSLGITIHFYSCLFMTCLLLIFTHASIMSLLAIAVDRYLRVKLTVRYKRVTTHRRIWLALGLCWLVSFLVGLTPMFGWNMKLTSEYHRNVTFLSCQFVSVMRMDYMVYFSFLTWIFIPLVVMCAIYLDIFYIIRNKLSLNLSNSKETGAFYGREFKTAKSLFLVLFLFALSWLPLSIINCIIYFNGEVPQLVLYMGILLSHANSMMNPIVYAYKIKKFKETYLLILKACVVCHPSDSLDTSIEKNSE

NL-rA1AR = biological target: T3, NL-rA1AR (Rattus norvegicus, UniProt P25099); test: NanoBRET competition ligand-binding assay (CA200645 tracer), NL-rA1AR
T3 construct: expressed in transfected cells
T3 sequence (P25099 1-326): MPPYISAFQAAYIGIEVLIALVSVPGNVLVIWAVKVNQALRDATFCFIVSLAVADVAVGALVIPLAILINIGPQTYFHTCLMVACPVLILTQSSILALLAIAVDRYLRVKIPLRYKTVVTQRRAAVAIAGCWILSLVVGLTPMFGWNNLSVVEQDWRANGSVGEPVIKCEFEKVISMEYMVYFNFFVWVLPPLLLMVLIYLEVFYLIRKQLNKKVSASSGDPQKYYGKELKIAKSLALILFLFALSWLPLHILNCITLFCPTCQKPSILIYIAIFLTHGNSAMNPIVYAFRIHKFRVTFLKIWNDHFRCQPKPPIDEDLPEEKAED

NL-hA1AR [3] = biological target: T1, NL-hA1AR; test: NanoBRET competition ligand-binding assay (CA200645 tracer), NL-hA1AR

SMILES	change in BRET signal after addition of 10 μM DPCPX (NL-hA1AR [1])	Kd (NL-hA1AR [2]; HEK293T cells stably expressing NL-hA1AR, 1 h 37 °C, mean ± SEM, read-out: affinity values pKD, NL-hA1AR (converted)) [nM]	greater affinity for the NL-A1AR compared to the NL-A2AAR (saturation binding) (NL-hA1AR [2]; selectivity from pKD values) [fold]	Ki (NL-hA3AR) [nM]	Ki (NL-rA1AR; CA200645 (25 nM) tracer, HEK293T cells, mean ± SEM, read-out: affinity values pKi, NL-rA1AR (converted)) [nM]	Ki (NL-rA1AR; supplementary CSV, read-out: AFFINITY (A1AR_rat) pKi (converted)) [nM]	Ki (NL-hA1AR [3]; CA200645 (25 nM) tracer, HEK293T cells, mean ± SEM, read-out: affinity values pKi, NL-hA1AR (converted)) [nM]	greater affinity for NL-A1AR over NL-A2AAR (competition binding) (NL-hA1AR [3]; selectivity from pKi values) [fold]	greater affinity for NL-A1AR over NL-A2BAR (competition binding) (NL-hA1AR [3]; selectivity from pKi values) [fold]	greater affinity for NL-A1AR over NL-A3AR (competition binding) (NL-hA1AR [3]; selectivity from pKi values) [fold]
CCCCn1c(=O)c2[nH]c(C34CCC(C(=O)NCCNC(=O)CCNC(=O)c5ccc(OC(=O)CCCCC[N+]6=C(/C=C/C=C/C=C7/N(C)c8ccc(S(=O)(=O)O)cc8C7(C)C)C(C)(C)c7cc(S(=O)(=O)[O-])ccc76)c(F)c5)(CC3)CC4)nc2n(CCCC)c1=O [Compound 11, 1-(6-(4-((3-((2-(4-(1,3-Dibutyl-2,6-dioxo-2,3,6,7-tetrahydro-1H-purin-8-yl)bicyclo[2.2.2]octane-1-carboxamido)ethyl)amino)-3-oxopropyl)carbamoyl)-2-fluorophenoxy)-6-oxohexyl)-3,3-dimethyl-2-((1E,3E)-5-((E)-1,3,3-trimethyl-5-sulfoindolin-2-ylidene)penta-1,3-dien-1-yl)-3H-indol-1-ium-5-sulfonate]	very little change in the BRET signal	30.9	7	–	–	–	–	–	–	–
CCCCn1c(=O)c2[nH]c(C34CCC(C(=O)NCCNC(=O)CCNC(=O)c5ccc(OC(=O)CCC(=O)NCCOCCOCCNC(=O)O[C@H]6CC/C=C/CCC6)c(F)c5)(CC3)CC4)nc2n(CCCC)c1=O [Compound 12, 4-((3-((2-(4-(1,3-Dibutyl-2,6-dioxo-2,3,6,7-tetrahydro-1H-purin-8-yl)bicyclo[2.2.2]octane-1-carboxamido)ethyl)amino)-3-oxopropyl)carbamoyl)-2-fluorophenyl (R,E)-1-(Cyclooct-4-en-1-yloxy)-1,12-dioxo-5,8-dioxa-2,11-diazapentadecan-15-oate]	–	–	–	> 10000	10.2	8.32	13.5	104	61	857
